# Tests used:
# Toe human iPS cells = assay: Differentiation of Toe human iPS cells into iPS-β cells, monolayer culture, protocol #1; assay type: cell-based; details: treatment from later stage of stage 3 to initial stage of stage 5
# Method: The Toe human iPS cells were seeded in CellBIND 6-well (CORNING, CLS3335) cell culture plate coated with synthemax II, and differentiated into primitive gut tube cells by the previously described method (Shahjalal et al., 2014). The cells were dissociated with TrypLE Select (Thermo Fisher, 12563011) and cryopreserved in BanBanker (Nippon genetics) at a density of 1.0 to 2.0×10^7 cells/mL until use. One day before compound addition, the cells were thawed in a medium for stage 3 (DMEM (high glucose), 0.25 μM SANT1 (Wako, 197-16351), 0.1 μM LDN193189 (Stemgent, 04-0074), 10 μM SB431542, 2 μM retinoic acid, 1% B27-free serum supplement (Life Technologies, 17504044), and seeded at 150,000 cells per well in CellBIND 96-well (Corning, 3340) cell culture plated coated with synthemax II. The cells were cultured for 1 day in a medium for stage 3 containing a test compound or a negative control (0.01% DMSO). The cells were further cultured for 2 days and 1 day in media for stages 4 and 5, respectively, containing the test compound or the negative control. On the next day, the cells were fixed in 4% paraformaldehyde for analysis using a high-content imager.
# [1] = system: human iPS cell Toe strain; assay: Effect to promote differentiation from human iPS cells into insulin-producing cells (insulin-positive cell rate, Reference Example 1); assay type: cell-based; details: 10 μM; average of 30 cases; untreated control 4.9%
# Excerpt: The evaluation system of the effect (efficacy) to promote differentiation from human iPS cells into insulin-producing cells was constructed with reference to known information (Non Patent Document 6). Further, the medium used in each differentiation stage was also produced with reference to known information (differentiation media A to E (Media A to E) described in Non Patent Document 6 were used respectively for stages 1 to 5; however, a medium free from GLP-1 receptor agonist and nicotinamide was used as differentiation medium E).
# In order to evaluate the efficacy of each compound, the compound of Synthesis Example 1 was used as a positive control, and dimethylsulfoxide (DMSO) (SIGMA, D2650) with a final concentration of 0.1% was used as a control untreated with compounds. Each compound was dissolved in DMSO, and two types of compound solutions were prepared so as to have final concentrations of 2 μM and 10 μM after the compound was added to the medium. In the following evaluation, the compound solutions were added to the medium to 0.1% that is the final concentration of DMSO.
# First, induction from human iPS cell Toe strain (National Institutes of Biomedical Innovation, Health and Nutrition) into cells on day 7 of culture (2 days after replacement with differentiation medium C (cells in the differentiation process from FOXA2-positive primitive gut tube cells into PDX1-positive pancreatic progenitor cells)) was performed according to the method of Non Patent Document 6 for “inducing differentiation from human iPS cells into pancreatic β cells”, and the cells were collected and thereafter stored in liquid nitrogen using Bambanker (NIPPON Genetics Co, Ltd.) at 1×10^7 cells/mL/tube, to produce a cell stock for evaluation. The cell stock was dissolved at the start of the evaluation of efficacy, suspended in differentiation medium C for stage 3 (DMEM high glucose (Life technologies, 11965092), 0.25 μM SANT-1, 0.1 μM LDN193189 (Stemgent, 04-0074), 10 μM SB431542, 2 μM Retinoic acid (Stemgent, 04-0021), 1% B27 serum free supplement (Life technologies, 17504044) and thereafter seeded in a 96-well plate (Corning, #3340) coated with Synthemax II (Corning, #5656) at 1×10^5 cells/well. After culturing for 2 days, the medium was removed, and new differentiation medium C for stage 3 with the compound or only DMSO added was added thereto at 100 μL/well. After culturing for 2 days, the medium was removed, and new differentiation medium D for stage 4 (DMEM high glucose, 0.1 μM LDN193189, 5 μM TGF-β type I receptor kinase inhibitor II (Calbiochem 616452), 0.3 μM (−)-indolactam V (Enzo life science ALX-420-011-C300), 1% B27 serum free supplement) with the compound or only DMSO added was added thereto at 100 μL/well. After culturing for 2 to 3 days, the medium was removed, and new differentiation medium E for stage 5 (GLP-1 receptor agonist and nicotinamide-free; Knockout […] (Life technologies, 12660012), 1% B27 serum free supplement) with the compound or only DMSO added was added thereto at 200 μL/well. After culturing for 2 days, the medium was removed, and a 4% paraformaldehyde phosphorus acid buffer (Wako, 163-20145) was added thereto at 150 μL/well and left standing for 30 to 60 minutes at room temperature to fix the cells. A phosphorus acid buffer (PBS) (Takara, T9181) containing 1% Triton X-100 (Sigma, T8787) was left standing for 15 minutes at room temperature, then washed with PBS-T (Takara, T9183), and was blocked for 1 hour using 20% Blocking One (Nacalai tesque, Tokyo, Japan) diluted with PBS-T at room temperature. After the removal of Blocking One, guinea pig anti-insulin antibody (Abcam, ab7842) diluted 200-fold with 20% Blocking One was added thereto at 50 μL/well, followed by standing at 4° C. overnight. […]
structure (smiles),measurement,setting,value
"O=C1CCC(C(=O)Nc2ncc(-c3ccccc3)s2)n2cccc21 (centres unmarked) [Synthesis Example 1, 8-Oxo-N-(5-phenylthiazol-2-yl)-6,7-dihydro-5H-indolizine-5-carboxamide]",differentiation into iPS-β cells (INS+ cells),Toe human iPS cells,enhanced differentiation into iPS-β cells
same,average insulin-positive cell rate,[1],13%
